Values of other authors, collected in US20240173301A1, “2-IMINOBIOTIN FOR USE IN THE TREATMENT OF STROKE” (NEUROPHYXIA B.V., priority 2021, published 2024).
Like-named read-outs stand apart in the source and are kept apart here. Where no end group is shown, it is not given here.

What was measured:
[1] = single dose
[2] = adult human patients after cardiac arrest
[3] = healthy volunteers; preclinical safety; Phase I and II studies in neonates with asphyxia and adults after cardiac arrest
[4] = in vivo
[5] = test system: neuronal culture

Molecule	clinical outcome ([1]; alteplase-treated stroke patients)	clinical outcome ([1]; stroke patients that did not receive alteplase)	tolerability of eGFR adjusted dose [2]	safety [3]	effect on tissue damage after ischemia-reperfusion [4]	concentration range at which 2-IB is most active in vitro [5]
YGRKKRRQRRRKLSSIESDV [nerinetide]	did not show favorable outcomes	significant improvement				
N=C1N[C@H]2[C@H](CS[C@H]2CCCCC(=O)O)N1 [2-IB, 2-iminobiotin]			tolerated without clinical drug-related adverse events	proven to be safe	prevents (further) tissue damage	around 30 ng/ml
